Measured values as given in a compilation of properties of binary mixtures (doi:10.1016/j.molliq.2014.09.055).

Test: xn = mol fraction of the nth substance listed
Conditions: 101 kPa

CCOS(=O)(=O)[O-].CC[n+]1ccn(C)c1 + CCC(=O)O
x2 = 0
Conditions | speed of sound [m/s]
293.15 K | 1693.1
298.15 K | 1680.8

CCOS(=O)(=O)[O-].CC[n+]1ccn(C)c1 + CC(=O)O
x2 = 0
Conditions | speed of sound [m/s]
293.15 K | 1693.1
298.15 K | 1680.8
303.15 K | 1668.5

CC(=O)O + CCOS(=O)(=O)[O-].CC[n+]1ccn(C)c1
speed of sound [m/s]
Conditions | 293.15 K | 298.15 K | 303.15 K | 308.15 K | 313.15 K
x1 = 0.0978 | – | – | 1656.4 | 1644.2 | –
x1 = 0.1993 | – | 1651.5 | 1639 | 1626.6 | 1614.3
x1 = 0.308 | 1644.8 | 1632.2 | 1619.5 | 1606.9 | 1594.4
x1 = 0.4031 | 1622.3 | – | 1596.6 | – | –
x1 = 0.4737 | 1603.2 | 1590.2 | 1577.1 | 1564 | 1551.1
x1 = 0.5975 | 1560.5 | 1547.1 | 1533.6 | 1520.1 | –
x1 = 0.701 | 1510.8 | 1497 | 1483.1 | 1469.2 | 1455.5
x1 = 0.8057 | – | – | – | 1394.1 | 1379.8
x1 = 0.8973 | 1339.1 | 1324 | – | 1293.3 | 1278
x1 = 0.9512 | – | 1237.2 | 1221 | 1204.9 | 1188.8
x1 = 1 | 1152.7 | – | 1118.4 | 1101.2 | 1084

CCC(=O)O + CCOS(=O)(=O)[O-].CC[n+]1ccn(C)c1
speed of sound [m/s]
Conditions | 293.15 K | 298.15 K | 303.15 K | 308.15 K | 313.15 K
x1 = 0.0818 | – | 1665.8 | 1653.5 | 1641.2 | 1629.1
x1 = 0.1678 | 1659.4 | 1647 | 1634.6 | 1622.2 | 1609.9
x1 = 0.2655 | 1635.9 | – | 1610.7 | – | 1585.6
x1 = 0.3539 | 1611.6 | 1598.8 | 1585.9 | – | 1566
x1 = 0.4224 | 1590.3 | 1577.4 | 1564.4 | 1551.4 | 1538.5
x1 = 0.5516 | 1542.7 | 1529.4 | 1515.9 | 1502.5 | 1489.2
x1 = 0.6556 | 1494.8 | 1481 | 1467 | 1453.1 | 1439.4
x1 = 0.7707 | 1421.7 | 1407.2 | 1392.4 | 1377.8 | 1363.3
x1 = 0.8774 | 1320.2 | 1304.5 | 1288.6 | 1272.8 | –
x1 = 0.9405 | 1240.4 | 1223.4 | 1206.2 | – | 1172.3
x1 = 1 | 1164.7 | 1146 | 1127.1 | 1108.3 | 1089.6
